Measurements: US20240254121A1, “ALKYLAMIDE SUBSTITUTED, ANNULATED IMIDAZOLES AND USE THEREOF AS INSECTICIDES” (Bayer Aktiengesellschaft, priority 2021, published 2024)

Key:
Format in all cases: in vivo
[1] = test system: brown planthopper (Nilaparvata lugens); experiment: Nilaparvata lugens spray test; conditions: 96 h, rice plants, after 4 days
Method: Nilaparvata lugens—Spray Test • Solvent: 78.0 parts by weight of acetone • 1.5 parts by weight of dimethylformamide • Emulsifier: alkylarylpolyglycol ether
(§1) To produce a suitable preparation of active compound, 1 part by weight of active compound is mixed with the stated amount of solvents and is diluted with water, containing an emulsifier concentration of 1000 ppm, to the desired concentration. Further test concentrations are prepared by dilution with emulsifier containing water.
Rice plants (Oryza sativa) are sprayed with a preparation of the active ingredient of the desired concentration and the plants are infested with the brown planthopper (Nilaparvata lugens).
After 4 days mortality in % is determined. 100% means all planthoppers have been killed and 0% means none of the planthoppers have been killed.

[2] = test system: adult cat fleas (Ctenocephalides felis); experiment: Ctenocephalides felis in-vitro contact test, adult cat flea; conditions: 1 μg/cm^2 (=100 g/ha), after 48 hours
Method: Ctenocephalides felis—In-Vitro Contact Tests Adult Cat Flea
(§2) 9 mg compound is solved in 1 mL acetone and diluted with acetone to the desired concentration. 250 μL of the test solution is filled in 25 mL glass test tubes and homogeneously distributed on the inner walls by rotation and tilting on a shaking device (2 h at 30 rpm). With a compound concentration of 900 ppm, an inner surface of 44.7 cm^2 and a homogeneous distribution, a dose of 5 μg/cm^2 is achieved.
After the solvent has evaporated, each test tube is filled with 5-10 adult cat fleas (Ctenocephalides felis), closed with a perforated lid and incubated in a lying position at room temperature and relative humidity.
(§3) After 48 hours efficacy is determined. The fleas are patted on the ground of the tubes and are incubated on a heating plate at 45-50° C. for at most 5 minutes. Immotile or uncoordinated moving fleas, which are not able to escape the heat by climbing upwards, are marked as dead or moribund.
An efficacy of 100% means all fleas are dead or moribund; 0% means no fleas are dead or moribund.

[3] = test system: adult mosquitoes Culex quinquefasciatus strain P00; experiment: Culex quinquefasciatus test (CULXFA surface treatment & contact assay); conditions: surface concentration 20 mg/m^2, 30 minutes exposure, 24 hours after contact, read-out: efficacy (mortality)
Method in brief: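 Compound dissolved in acetone (2 mg/ml) with 2000 ppm RME and applied to glazed tile; after acetone evaporation, adults exposed to dried surface for 30 min. Percent mortality scored 24 h after contact.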

[4] = test system: green peach aphid (Myzus persicae); experiment: Myzus persicae spray test; conditions: foliar, 120 h, 100 g/ha, Chinese cabbage leaf disks, after 5 days
Method: Myzus persicae—Spray Test • Solvent: 78.0 parts by weight acetone • 1.5 parts by weight dimethylformamide • Emulsifier: alkylarylpolyglycol ether
as §1
Chinese cabbage (Brassica pekinensis) leaf disks infected with all instars of the green peach aphid (Myzus persicae), are sprayed with a preparation of the active ingredient of the desired concentration.
After 5 days mortality in % is determined. 100% means all aphids have been killed and 0% means none of the aphids have been killed.

[5] = test system: adult mosquitoes Aedes aegypti strain MONHEIM; experiment: Aedes aegypti test (AEDSAE surface treatment & contact assay); conditions: 24 hours after contact, read-out: efficacy (mortality); for mortality at 4 mg/m2: surface concentration 4 mg/m^2, 30 minutes exposure; for mortality at 20 mg/m2: surface concentration 20 mg/m^2, 30 minutes exposure
Method in brief: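 Test compound dissolved in acetone (2 mg/ml) with 2000 ppm rapeseed oil methyl ester, applied to glazed tile and dried. Adult Aedes aegypti MONHEIM placed on surface for 30 min exposure; % mortality scored 24 h after contact.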

[6] = test system: fall armyworm larvae (Spodoptera frugiperda); experiment: Spodoptera frugiperda spray test; conditions: 168 h, maize leaf sections, after 7 days
Method in brief: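 Maize leaf sections sprayed with compound in acetone/dimethylformamide, diluted in water with 1000 ppm alkylarylpolyglycol ether emulsifier. Dried sections infested with fall armyworm larvae. Mortality (%) scored after 7 days; 100% = all caterpillars killed.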

[7] = test system: adult brown dog ticks (Rhipicephalus sanguineus); experiment: Rhipicephalus sanguineus in-vitro contact test with adult brown dog ticks; conditions: 1 μg/cm^2 (=100 g/ha), after 48 hours
Method: Rhipicephalus sanguineus—In-Vitro Contact Tests with Adult Brown Dog Ticks
as §2
as §3, with “After the solvent has evaporated, each test tube is filled with 5-10 adult brown dog ticks (Rhipicephalus sanguineus), closed with a perforated lid and incubated in a lying position at room temperature and relative humidity. After” for “After”, “ticks” for “fleas”, “ticks,” for “fleas,”
An efficacy of 100% means all ticks are dead or moribund; 0% means no ticks are dead or moribund.

[8] = test system: adult flies Musca domestica strain WHO-N; experiment: Musca domestica test (MUSCDO surface treatment & contact assay); conditions: 24 hours after contact, read-out: efficacy (mortality); for mortality at 4 mg/m2: surface concentration 4 mg/m^2, 30 minutes exposure; for mortality at 20 mg/m2: surface concentration 20 mg/m^2, 30 minutes exposure
Method in brief: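 Compound dissolved in acetone (2 mg/ml) with 2000 ppm rapeseed oil methyl ester and dried onto a glazed tile. Adult flies exposed to the treated surface for 30 min. Percent mortality scored 24 h after contact.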

[9] = test system: cattle tick larvae (Rhipicephalus microplus); experiment: Rhipicephalus (Boophilus) microplus in-vitro contact test, larval cattle tick (strain Parkhurst, resistant against synthetic pyrethroids); conditions: 1 μg/cm^2 (=100 g/ha), after 48 hours, read-out: efficacy (larvae dead or moribund)
Method in brief: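 After drying, 20-50 larvae were held per tube at 27° C., 85% relative humidity for 48 h, and efficacy was scored as % dead or moribund.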

[10] = test system: larvae of the banded cucumber beetle (Diabrotica balteata); experiment: Diabrotica balteata spray test; conditions: 168 h, 100 g/ha (=32 μg/well), wheat seeds, after 7 days, read-out: efficacy (seedling growth)
Method in brief: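 Germinated wheat seedlings (5 per well, on agar) sprayed with compound in acetone/dimethylformamide diluted in water with 1000 ppm emulsifier, then infested with 10-20 Diabrotica balteata larvae. Efficacy (%) scored after 7 days: 100% = seedling growth as untreated, uninfested control; 0% = no seedlings grown.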

[11] = test system: larvae of the southern green stink bug (Nezara viridula); experiment: Nezara viridula spray test; conditions: 96 h, barley plants, after 4 days
Method in brief: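 Barley plants sprayed with compound in acetone/dimethylformamide, diluted in water with 1000 ppm alkylarylpolyglycol ether emulsifier, then infested with Nezara viridula larvae. Percent mortality read after 4 days (100% = all killed, 0% = none).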

[12] = test system: adult Blattella germanica strain PAULINIA; experiment: whole plant or invertebrate; conditions: read-out: efficacy (mortality)
Method: Blattella germanica Test (BLTTGE Surface Treatment & Contact Assay) • Solvent: Aceton+2000 ppm rapeseed oil methyl ester (RME)
In order to produce a sufficient, active ingredient containing solution it is necessary to solve the test compound in the solvent-mix (acetone at 2 mg/ml/RME 2000 ppm). This solution is pipetted onto a glazed tile and after evaporation of the acetone, adult animals of the species Blattella germanica strain PAULINIA are placed onto the dried surface. The exposure time is 30 minutes.
Mortality in percent (%) is determined 24 hours after contact of the insects to the treated surface. 100% mortality means that all tested insects are dead, whereas 0% means that no insect died.

Compound | mortality at 500 g/ha [1] | efficacy (fleas dead or moribund) [2] | mortality at 20 mg/m2 [3] | mortality at 100 g/ha [4] | mortality at 4 mg/m2 [5] | mortality at 20 mg/m2 [5] | mortality at 100 g/ha [6] | efficacy (ticks dead or moribund) [7] | mortality at 4 mg/m2 [8] | mortality at 20 mg/m2 [8] | pest or weed control at 1 µg/cm2, 100 g/ha [9] | pest or weed control at 32 µg/disc, 100 g/ha [10] | mortality at 500 g/ha [11] | mortality at 20 mg/m2 [12]
C[C@H](NC(=O)c1cc(C(F)(F)F)cc(C(F)(F)F)c1)c1nc2cccnc2n1-c1ccc(C#N)cn1 [Example I-15] | 90% | 80% | 80 to 100% | 90% | 80 to 100% | 80 to 100% | 100% | 80% | 80 to 100% | 80 to 100% | 100% | 100% |  | 
CC(NC(=O)c1cc(OC(F)(F)F)cc(OC(F)(F)F)c1)c1nc2cccnc2n1-c1ncccn1 (centres unmarked) [Example I-31] |  |  | 80 to 100% | 90% | 80 to 100% | 80 to 100% | 100% |  | 80 to 100% | 80 to 100% | 100% | 100% | 100% | 80 to 100%
